In article PMC9994260, “Cryo-EM structure of the RADAR supramolecular anti-phage defense complex” (Cell, 2023):
Where “and” joins values, the source holds several entries; their conditions need not be identical. Equal entries are not always repeated.

How the values were obtained:
[1] = biological target: E. coli RdrA (RADAR system of E. coli P0304799.3) (E. coli P0304799.3); test: cryo-EM structure; purified E. coli RdrA alone, 2.40 mg/mL, vitrified at 4°C; Titan Krios 300 kV
E. coli RdrB (EcRdrB) [2] = biological target: T1, E. coli RdrB (EcRdrB) (Escherichia coli, UniProt A0AAN0NNX4); test: HPLC deamination assay (dATP to dITP) after phosphatase treatment; format: biochemical; conditions: 1 mM substrate, 1 μM RdrB, 30 min, 37 °C, pH 7.5, 10 mM MgCl2, 100 μM ZnSO4, 50 mM KCl, 1 mM TCEP
T1 construct: full-length, ~90 kDa, N-terminal 6xHis-SUMO2 tag removed by SENP2, expressed in E. coli BL21-RIL; dodecamer; Zn site H152, H154, H498, H530, catalytic E501
T1 sequence (A0AAN0NNX4 1-799): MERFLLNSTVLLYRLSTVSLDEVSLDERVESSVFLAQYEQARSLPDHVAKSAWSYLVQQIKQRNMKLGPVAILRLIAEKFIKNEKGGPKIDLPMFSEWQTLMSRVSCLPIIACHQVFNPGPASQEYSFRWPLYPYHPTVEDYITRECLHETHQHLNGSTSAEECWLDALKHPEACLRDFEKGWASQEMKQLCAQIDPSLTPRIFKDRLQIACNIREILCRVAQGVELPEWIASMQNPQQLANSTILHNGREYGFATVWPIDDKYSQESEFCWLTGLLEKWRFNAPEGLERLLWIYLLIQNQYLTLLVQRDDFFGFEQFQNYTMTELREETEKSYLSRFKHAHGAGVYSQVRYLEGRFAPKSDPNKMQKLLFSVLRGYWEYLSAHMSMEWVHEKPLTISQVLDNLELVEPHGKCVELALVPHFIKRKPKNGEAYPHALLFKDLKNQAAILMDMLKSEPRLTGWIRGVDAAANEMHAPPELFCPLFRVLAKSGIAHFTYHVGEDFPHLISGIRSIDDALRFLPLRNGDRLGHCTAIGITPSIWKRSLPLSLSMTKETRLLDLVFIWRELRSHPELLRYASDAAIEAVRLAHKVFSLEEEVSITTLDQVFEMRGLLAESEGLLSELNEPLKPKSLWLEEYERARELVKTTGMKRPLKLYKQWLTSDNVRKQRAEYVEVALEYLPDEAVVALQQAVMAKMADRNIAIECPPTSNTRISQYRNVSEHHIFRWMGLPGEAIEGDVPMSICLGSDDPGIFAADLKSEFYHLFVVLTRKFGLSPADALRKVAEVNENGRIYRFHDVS

[3] = biological target: E. coli RdrB (RADAR system of E. coli P0304799.3) (E. coli P0304799.3); test: cryo-EM structure; purified E. coli RdrB alone, 2.35 mg/mL, vitrified at 4°C; Titan Krios 300 kV
[4] = biological target: S. suis RdrA (RADAR system of Streptococcus suis SS993) (Streptococcus suis SS993); test: cryo-EM structure; purified S. suis RdrA alone; Talos Arctica 200 kV; single heptameric rings and double stacked rings picked
E. coli RdrA (EcRdrA) = biological target: T2, E. coli RdrA (EcRdrA) (Escherichia coli, UniProt A0AAN0NNX5); test: malachite green phosphate release (NTPase); format: biochemical; conditions: 1 mM NTP, 5 μM RdrA, 2 h, pH 7.5, 10 mM MgCl2, 50 mM KCl, 1 mM TCEP
T2 construct: full-length, N-terminal 6xHis-SUMO2 tag removed by SENP2, expressed in E. coli BL21-RIL; heptamer, active site between neighbouring subunits; Walker A G81, K82, T83, Walker B D221, D222
T2 sequence (A0AAN0NNX5 1-947): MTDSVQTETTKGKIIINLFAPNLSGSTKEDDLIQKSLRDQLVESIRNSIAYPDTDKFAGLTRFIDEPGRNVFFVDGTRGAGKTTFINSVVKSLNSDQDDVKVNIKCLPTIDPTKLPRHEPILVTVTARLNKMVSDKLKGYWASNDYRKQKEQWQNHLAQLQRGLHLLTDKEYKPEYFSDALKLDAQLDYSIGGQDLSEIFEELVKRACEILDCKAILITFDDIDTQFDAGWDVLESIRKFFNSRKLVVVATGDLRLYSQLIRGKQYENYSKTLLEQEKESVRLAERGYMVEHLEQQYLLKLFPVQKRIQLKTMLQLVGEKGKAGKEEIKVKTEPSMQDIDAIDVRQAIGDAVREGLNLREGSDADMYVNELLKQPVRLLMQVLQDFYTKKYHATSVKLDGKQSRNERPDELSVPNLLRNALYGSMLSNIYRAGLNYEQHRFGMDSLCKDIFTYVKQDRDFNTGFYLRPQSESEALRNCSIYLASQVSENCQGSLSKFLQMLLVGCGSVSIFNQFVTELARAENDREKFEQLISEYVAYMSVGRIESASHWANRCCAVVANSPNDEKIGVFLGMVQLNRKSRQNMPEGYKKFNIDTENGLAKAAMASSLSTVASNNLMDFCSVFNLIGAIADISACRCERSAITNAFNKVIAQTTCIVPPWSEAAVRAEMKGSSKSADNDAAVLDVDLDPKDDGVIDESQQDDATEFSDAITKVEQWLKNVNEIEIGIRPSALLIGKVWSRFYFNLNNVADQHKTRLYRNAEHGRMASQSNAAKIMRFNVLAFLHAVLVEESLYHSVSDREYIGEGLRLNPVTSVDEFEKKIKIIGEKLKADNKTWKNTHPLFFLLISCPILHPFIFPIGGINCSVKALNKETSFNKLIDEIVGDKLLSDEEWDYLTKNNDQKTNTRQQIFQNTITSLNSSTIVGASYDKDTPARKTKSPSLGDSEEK

E. coli RdrB (EcRdrB) [5] = biological target: T1, E. coli RdrB (EcRdrB); test: HPLC deamination assay (ATP to ITP) after phosphatase treatment; format: biochemical; conditions: 1 mM substrate, 1 μM RdrB, 30 min, 37 °C, pH 7.5, 10 mM MgCl2, 100 μM ZnSO4, 50 mM KCl, 1 mM TCEP

Molecule: E. coli RdrA (RADAR system of E. coli P0304799.3) (enzyme)
- stoichiometry N [1]: 7

Molecule: Nc1ncnc2c1ncn2[C@H]1C[C@H](O)[C@@H](COP(=O)(O)OP(=O)(O)OP(=O)(O)O)O1 [dATP]
- HPLC deamination assay (dATP to dITP) after phosphatase treatment (E. coli RdrB (EcRdrB) [2]): E. coli RdrB robustly deaminates both ATP and dATP substrates with equal efficiency

Molecule: E. coli RdrB (RADAR system of E. coli P0304799.3) (enzyme)
- stoichiometry N [3]: 12

Molecule: S. suis RdrA (RADAR system of Streptococcus suis SS993) (enzyme)
- stoichiometry N [4]: 7 and 14

Molecule: O=c1[nH]cnc2c1ncn2[C@@H]1O[C@H](COP(=O)(O)OP(=O)(O)OP(=O)(O)O)[C@@H](O)[C@H]1O [ITP]
- malachite green phosphate release (NTPase) (E. coli RdrA (EcRdrA); weak substrate): Compared with ATP, RdrA only weakly hydrolyzes ITP and GTP

Molecule: Nc1ncnc2c1ncn2[C@@H]1O[C@H](COP(=O)(O)OP(=O)(O)OP(=O)(O)O)[C@@H](O)[C@H]1O [ATP]
- malachite green phosphate release (NTPase) (E. coli RdrA (EcRdrA)): RdrA is an active ATPase in vitro that preferentially hydrolyzes ATP
- HPLC deamination assay (ATP to ITP) after phosphatase treatment (E. coli RdrB (EcRdrB) [5]): E. coli RdrB robustly deaminates both ATP and dATP substrates with equal efficiency
